In the assay the target is MAPK13 (Homo sapiens (Human), UniProt O15264).

Here are results for 30 compounds from patent publication US11407771B2 (priority 2018, dated 2022).

SMILES strings stand for the structures. Where two headings read alike, the source gives them in different places.

Sequence of MAPK13 (O15264 whole entry): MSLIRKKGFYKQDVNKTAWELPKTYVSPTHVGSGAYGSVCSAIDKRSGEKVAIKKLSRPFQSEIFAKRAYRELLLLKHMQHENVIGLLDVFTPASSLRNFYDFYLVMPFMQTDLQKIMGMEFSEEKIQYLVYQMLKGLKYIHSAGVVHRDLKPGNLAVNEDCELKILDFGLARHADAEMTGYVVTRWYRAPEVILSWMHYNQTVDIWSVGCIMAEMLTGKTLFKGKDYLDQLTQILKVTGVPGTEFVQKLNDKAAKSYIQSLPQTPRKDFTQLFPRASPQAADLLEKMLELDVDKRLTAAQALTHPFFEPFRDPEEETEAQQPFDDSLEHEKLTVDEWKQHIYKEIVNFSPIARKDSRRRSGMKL

As for `COCC(=O)Nc1cc(Oc2ccc(NC(=O)Nc3cc(C4(C)COC4)nn3-c3ccc(C)cc3)cc2)ccn1` [Compound 259, 2-Methoxy-N-[4-(4-{3-[5-(3-methyl-oxetan-3-yl)-2-p-tolyl-2H-pyrazol-3-yl]-ureido}-phenoxy)-pyridin-2-yl]-acetamide], under “read-out: MAPK13 inhibition”, the IC50 was less than 250 nM.

Take `COCC(=O)Nc1cc(Oc2ccc(NC(=O)Nc3cc(C4(C)CSC4)nn3-c3ccc(C)cc3)cc2)ccn1` [Compound 260, 2-Methoxy-N-[4-(4-{3-[5-(3-methyl-thietan-3-yl)-2-p-tolyl-2H-pyrazol-3-yl]-ureido}-phenoxy)-pyridin-2-yl]-acetamide]: the IC50 (read-out: MAPK13 inhibition) is less than 250 nM.

Take `COC(=O)Nc1cc(Oc2ccc(NC(=O)Nc3cc(C4(C)COC4)nn3-c3ccc(C)cc3)cc2)ccn1` [Compound 261, [4-(4-{3-[5-(3-Methyl-oxetan-3-yl)-2-p-tolyl-2H-pyrazol-3-yl]-ureido}-phenoxy)-pyridin-2-yl]-carbainic acid methyl ester]: the IC50 (read-out: MAPK13 inhibition) was less than 250 nM.

As for `COC(=O)Nc1cc(Oc2ccc(NC(=O)Nc3cc(C4(C)CSC4)nn3-c3ccc(C)cc3)cc2)ccn1` [Compound 262, [4-(4-{3-[5-(3-Methyl-thietan-3-yl)-2-p-tolyl-2H-pyrazol-3-yl]-ureido}-phenoxy)-pyridin-2-yl]-carbamic acid methyl ester], under “read-out: MAPK13 inhibition”, the IC50 is less than 250 nM.

In the case of `Cc1ccc(-n2nc(C3(C)CSC3)cc2NC(=O)Nc2ncc(CCc3ccncc3)s2)cc1` [Compound 273, 1-[5-(3-Methyl-thietan-3-yl)-2-p-tolyl-2H-pyrazol-3-yl]-3-[5-(2-pyridin-4-yl-ethyl)-thiazol-2-yl]-urea], the IC50 (read-out: MAPK13 inhibition) was less than 250 nM.

With `CCNC(=O)Nc1cc(CCc2cnc(NC(=O)Nc3cc(C(C)(C)C)nn3-c3ccc(C)cc3)s2)ccn1` [Compound 284, 1-[4-(2-{2-[3-(5-tert-Butyl-2-p-tolyl-2H-pyrazol-3-yl)-ureido]-thiazol-5-yl}-ethyl)-pyridin-2-yl]-3-ethyl-urea], for the setting “read-out: MAPK13 inhibition”, the IC50 is less than 250 nM.

Consider `Cc1ccc(-n2nc(C(C)(C)C)cc2NC(=O)Nc2ncc(CCc3ccnc(NC(=O)C4CCOCC4)c3)s2)cc1` [Compound 288, Tetrahydro-pyran-4-carboxylic acid [4-(2-{2-[3-(5-tert-butyl-2-p-tolyl-2H-1-pyrazol-3-yl)-ureido]-thiazol-5-yl}-ethyl)-pyridin-2-yl]-amide], for which, under “read-out: MAPK13 inhibition”, the IC50 is less than 250 nM.

As for `Cc1ccc(-n2nc(C(C)(C)C)cc2NC(=O)Nc2ccc(Oc3ccncc3C)cc2F)cc1` [Compound 300, 1-(5-tert-Butyl-2-p-tolyl-2H-pyrazol-3-yl)-3-[2-fluoro-4-(3-methyl-pyridin-4-yloxy)-phenyl]-urea], the IC50 (read-out: MAPK13 inhibition) was less than 250 nM.

For the compound `CC(C)(C)c1cc(NC(=O)Nc2ccc(Oc3ccncc3)cc2F)n(-c2ccc(F)cc2)n1` [Compound 303, 1-[5-tert-Butyl-2-(4-fluoro-phenyl)-2H-pyrazol-3-yl]-3-[2-fluoro-4-(pyridin-4-yloxy)-phenyl]-urea], where the note is “read-out: MAPK13 inhibition”, the IC50 was less than 250 nM.

Regarding `CC(C)(C)c1cc(NC(=O)Nc2ccc(Oc3ccnc(N)c3)cc2F)n(-c2cccc(F)c2)n1` [Compound 304, 1-[4-(2-Amino-pyridin-4-yloxy)-2-fluoro-phenyl]-3-[5-tert-butyl-2-(3-fluoro-phenyl)-2H-pyrazol-3-yl]-urea], the IC50 (read-out: MAPK13 inhibition) is less than 250 nM.

As for `CC(C)(C)c1cc(NC(=O)Nc2ccc(Oc3ccncc3)cc2F)n(-c2cccc(F)c2)n1` [Compound 306, 1-[5-tert-butyl-2-(3-fluorophenyl)pyrazol-3-yl]-3-[2-fluoro-4-(4-pyridyloxy)phenyl]urea], for the setting “read-out: MAPK13 inhibition”, the IC50 is less than 250 nM.

For the compound `CC(C)(C)c1cc(NC(=O)Nc2ccc(Oc3ccncc3)cc2F)n(CC2CC2)n1` [Compound 310, 1-(5-tert-Butyl-2-cyclopropylmethyl-2H-pyrazol-yl)-3-[2-fluoro-4-(pyridin-4-yloxy)-phenyl]-urea], the IC50 (read-out: MAPK13 inhibition) was less than 250 nM.

Consider `COC(=O)Nc1cc(CCc2ccc(NC(=O)Nc3cc(C(C)(C)C)nn3-c3ccc(C)cc3)c(F)c2)ccn1` [Compound 315, [4-(2-{4-[3-(5-tert-Butyl-2-p-tolyl-2H-pyrazol-3-yl)-ureido]-3-fluoro-phenyl}-ethyl)-pyridin-2-yl]-carbamic acid methyl ester], for which the IC50 (read-out: MAPK13 inhibition) is greater than 1000 nM.

As for `CC(=O)Nc1cc(CCc2cnc(NC(=O)Nc3cc(C(C)(C)C)nn3CC3CC3)s2)ccn1` [Compound 325, N-[4-(2-{2-[3-(5-tert-Butyl-2-cyclopropylmethyl-2H-pyrazol-3-yl)-ureido]-thiazol-5-yl}-ethyl)-pyridin-2-yl]-acetamide], for the setting “read-out: MAPK13 inhibition”, the IC50 is less than 250 nM.

Turning to `CC(=O)Nc1cc(CCc2ccc(NC(=O)Nc3cc(C(C)(C)C)nn3-c3ccc(C)cc3)c(F)c2)ccn1` [Compound 329, N-[4-(2-{4-[3-(5-tert-Butyl-2-p-tolyl-2H-pyrozol-3-yl)-ureido]-3-fluoro-phenyl}-ethyl)-pyridin-2-yl]-acetamide], the IC50 (read-out: MAPK13 inhibition) is less than 250 nM.

In the case of `Cc1ccc(-n2nc(C(C)(C)C)cc2NC(=O)Nc2ncc(CCc3ccnc(NC(=O)C4CC4)c3)s2)cc1` [Compound 331, Cyclopropanecarboxylic acid [4-(2-{2-[3-(5-tert-butyl-2-p-tolyl-2H-pyrazol-3-yl)-ureido]-thiazol-5-yl}ethyl)-pyridin-2-yl]-amide], the IC50 was 11 nM (read-out: MAPK13 IC50) and less than 250 nM (read-out: MAPK13 inhibition).

In the case of `Cc1ccc(-n2nc(C(C)(C)C)cc2NC(=O)Nc2ncc(CCc3ccnc(NC(=O)C4CCC4)c3)s2)cc1` [Compound 332, Cyclobutanecarboxylic acid [4-(2-{2-[3-(5-tert-butyl-2-p-tolyl-2H-pyrazol-3-yl)-ureido]-thiazol-5-yl}-ethyl)-pyridin-2-yl]-amide], the IC50 was 18 nM (read-out: MAPK13 IC50) and less than 250 nM (read-out: MAPK13 inhibition).

On to `CC(C)(C)c1cc(NC(=O)Nc2ncc(CCc3ccnc(NC(=O)C4CC4)c3)s2)n(CC2CC2)n1` [Compound 334, Cyclopropanecarboxylic acid [4-(2-{2-[3-(5-tert-butyl-2-cyclopropylmethyl-2H-pyrazol-3-yl)-ureido]-thiazol-5-yl}-ethyl)-pyridin-2-yl]-amide], for which the IC50 (read-out: MAPK13 inhibition) is less than 250 nM.

Take `CCOC(=O)Nc1cc(CCc2cnc(NC(=O)Nc3cc(C(C)(C)C)nn3C)s2)ccn1` [Compound 335, [4-(2-{2-[3-(5-tert-Butyl-2-methyl-2H-pyrazol-3-yl)-ureido]-thiazol-5-yl}-ethyl)-pyridin-2-yl]-carbamic acid ethyl ester]: under “read-out: MAPK13 inhibition”, the IC50 is less than 250 nM.

On to `Cc1ccc(-n2nc(C(C)(C)C)cc2NC(=O)Nc2ncc(CCc3ccnc(NC(=O)N4CCCC4)c3)s2)cc1` [Compound 337, Pyrrolidine-1-carboxylic acid [4-(2-{2-[3-(5-tert-butyl-2-p-tolyl-2H-pyrazol-3-yl)-ureido]-thiazol-5-yl}-ethyl)-pyridin-2-yl]-amide], for which, under “read-out: MAPK13 inhibition”, the IC50 is less than 250 nM.

As to `CC(C)(C)c1cc(NC(=O)Nc2ncc(CCc3ccnc(NC(=O)C4CCC4)c3)s2)n(CC2CC2)n1` [Compound 339, Cyclobutanecarboxylic acid [4-(2-{2-[3-(5-tert-butyl-2-cyclopropylmethyl-2H-pyrazol-3-yl)-ureido]-thiazol-5-yl}-ethyl)-pyridin-2-yl]-airdde], the IC50 (read-out: MAPK13 inhibition) is less than 250 nM.

Regarding `CCNC(=O)Nc1cc(CCc2cnc(NC(=O)Nc3cc(C(C)(C)C)nn3CC3CC3)s2)ccn1` [Compound 340, 1-[4-(2-{2-[3-(5-tert-Butyl-2-cyclopropylmethyl-2H-pyrazol-3-yl)-uredo]-thiazol-5-yl}-ethyl)-pyridin-2-yl]-3-ethyl-urea], where the note is “read-out: MAPK13 inhibition”, the IC50 is less than 250 nM.

Consider `COCCC(=O)Nc1cc(CCc2cnc(NC(=O)Nc3cc(C(C)(C)C)nn3CC3CC3)s2)ccn1` [Compound 342, N-[4-(2-{2-[3-(5-tert-Butyl-2-cyclopropylmethyl-2H-pyrazol-3-yl)-ureido]-thiazol-5-yl}-ethyl)-pyridin-2-yl]-3-methoxy-propionamide], for which the IC50 (read-out: MAPK13 inhibition) is less than 250 nM.

On to `Cn1nc(C(C)(C)C)cc1NC(=O)Nc1ncc(CCc2ccnc(NC(=O)C3CC3)c2)s1` [Compound 345, Cyclopropanecarboxylic acid [4-(2-{2-[3-(5-tert-butyl-2-methyl-2H-pyrazol-3-yl)-ureido]-thiazol-5-yl}-ethyl)-pyridin-2-yl]-amide], for which the IC50 (read-out: MAPK13 inhibition) is less than 250 nM.

With `CC(C)C(=O)Nc1cc(CCc2cnc(NC(=O)Nc3cc(C(C)(C)C)nn3C)s2)ccn1` [Compound 349, N-[4-(2-{2-[3-(5-tert-Butyl-2-methyl-2H-pyrazol-3-yl)-ureido]-thiazol-5-yl}-ethyl)-pyridin-2-yl]-isobutyramide], for the setting “read-out: MAPK13 inhibition”, the IC50 was less than 250 nM.

In the case of `COCC(=O)Nc1cc(CCc2cnc(NC(=O)Nc3cc(C(C)(C)C)nn3C)s2)ccn1` [Compound 350, N-[4-(2-{2-[3-(5-tert-Butyl-2-methyl-2H-pyrazol-3-yl)-ureido]-thiazol-5-yl}-ethyl)-pyridin-2-yl]-2-methoxy-acetamide], the IC50 (read-out: MAPK13 inhibition) was less than 250 nM.

For `CCNC(=O)Nc1cc(CCc2cnc(NC(=O)Nc3cc(C(C)(C)C)nn3C)s2)ccn1` [Compound 352, 1-[4-(2-{2-[3-(5-tert-Butyl-2-methyl-2H-pyrazol-3-yl)-ureido]-thiazol-5-yl}ethyl)-pyridin-2-yl]-3-ethyl-urea], the IC50 (read-out: MAPK13 inhibition) is less than 250 nM.

Consider `Cn1nc(C(C)(C)C)cc1NC(=O)Nc1ncc(CCc2ccnc(NC(=O)C3CCC3)c2)s1` [Compound 353, Cyclobutanecarboxylic acid [4-(2-{2-[3-(5-tert-butyl-2-methyl-2H-pyrazol-3-yl)-ureido]-thiazol-5-yl}-ethyl)-pyridin-2-yl]-amide], for which, under “read-out: MAPK13 inhibition”, the IC50 is less than 250 nM.

Take `CCOC(=O)Nc1cc(CCc2cnc(NC(=O)Nc3cc(C(F)(F)F)ccc3F)s2)ccn1` [Compound 357, [4-(2-{2-[3-(2-Fluoro-5-trifluoromethyl-phenyl)-ureido]-thiazol-5yl}-ethyl)-pyridin-2-yl]-carbamic acid ethyl ester]: under “read-out: MAPK13 inhibition”, the IC50 was greater than 1000 nM.

As to `CC(=O)Nc1cc(CCc2ccc(NC(=O)Nc3cc(C(C)(C)C)on3)c(F)c2)ccn1` [Compound 358, N-[4-(2-{4-[3-(5-tert-Butyl-isoxazol-3-yl)-ureido]-3-fluoro-phenyl}-ethyl)-pyridin-2-yl]-acetamide], the IC50 (read-out: MAPK13 inhibition) was greater than 1000 nM.
